# Source: US20190240210A1, “Treatment Method by Combined Use of MDM2 Inhibitor and DNA Methyltransferase Inhibitor” (DAIICHI SANKYO COMPANY, LIMITED, priority 2016, published 2019)
# Tests used:
# [1] = test system: human acute myeloid leukemia cell line MOLM-13; experiment: In vivo effect of combined use of Compound A and azacitidine on subcutaneous MOLM-13 tumors in NOD-SCID mice (Test Example 1); conditions: for TGI (%): 17 days after tumor inoculation
# Method: (§1) Human acute myeloid leukemia cell line MOLM-13 cells were suspended to 5×10^7 cells/mL using phosphate-buffered saline. 0.1 mL of the prepared cell suspension was subcutaneously transplanted to each NOD-SCID mouse (male, 6 weeks old). […] The major axis (mm) and minor axis (mm) of tumor were measured over time using an electronic digital caliper. […] In addition, the results of the last body weight measurement were used in dose calculation. […] A: Average tumor volume of the compound-administered group on the date of assessment (*) B: Average tumor volume of the untreated control group on the date of assessment (*) *: The tumor volume was calculated according to ½×[Major axis of tumor]×[Minor axis of tumor]×[Minor axis of tumor].
# [2] = Body weight change of MOLM-13 tumor-bearing NOD-SCID mice, Compound A and azacitidine (Test Example 1); type: in vivo, mouse
# Method: (§2) Human acute myeloid leukemia cell line MOLM-13 cells were suspended to 5×10^7 cells/mL using phosphate-buffered saline. 0.1 mL of the prepared cell suspension was subcutaneously transplanted to each NOD-SCID mouse (male, 6 weeks old). On 6 days after the tumor inoculation, after confirmation that the average tumor volume exceeded 100 mm^3, the mice were grouped on the basis of their tumor volume values. 25 mg/kg or 50 mg/kg Compound A was orally administered by forced administration to the mice. 2.5 mg/kg or 4 mg/kg azacitidine was intravenously administered to the tails of the mice. For a combined use group, 25 mg/kg or 50 mg/kg Compound A and 2.5 mg/kg or 4 mg/kg azacitidine were administered sequentially. The administration of Compound A was performed once a day for 5 consecutive days (6 to 10 days after the tumor inoculation) from the date of grouping (6 days after the tumor inoculation), and after a 2-day drug holiday, performed once a day for 4 consecutive days (13 to 16 days after the tumor inoculation). The administration of azacitidine was performed once a day for 5 consecutive days (6 to 10 days after the tumor inoculation) from the date of grouping (6 days after the tumor inoculation). The major axis (mm) and minor axis (mm) of tumor were measured over time using an electronic digital caliper. Tumor growth inhibition % (TGI %) on the date of assessment (17 days after the tumor inoculation) calculated according to calculation formula (4) shown below was used in evaluation. Also, the body weights were measured over time using an automatic balance for small animals, and body weight change % was calculated according to calculation formula (5) shown below to study the influence of drug administration on the body weights. In addition, the results of the last body weight measurement were used in dose calculation.
# (§3) Body weight change (%)=Average body weight change % of the individuals (5)
# (§4) Body weight change % of each individual=[…]
# (§5) BWn: Body weight on day n
# (§6) BWs: Body weight on the start day of administration
# [3] = test system: human acute myeloid leukemia cell line MOLM-13; experiment: In vivo effect of combined use of Compound A and decitabine on subcutaneous MOLM-13 tumors in NOD-SCID mice (Test Example 2); conditions: for TGI (%): 17 days after tumor inoculation
# Method: as §1, with “old). […] For a combined use group, 25 mg/kg or 50 mg/kg Compound A and 1 mg/kg or 50 mg/kg decitabine were administered sequentially.” for “old).”
# [4] = Body weight change of MOLM-13 tumor-bearing NOD-SCID mice, Compound A and decitabine (Test Example 2); type: in vivo, mouse
# Method: as §2, with “the mice. 1 mg/kg or” for “the mice. 2.5 mg/kg or”, “mg/kg or 50 mg/kg decitabine” for “mg/kg or 4 mg/kg azacitidine”, “50 mg/kg decitabine was intravenously” for “4 mg/kg azacitidine was intravenously”, “A and 1 mg/kg or” for “A and 2.5 mg/kg or”, “50 mg/kg decitabine were administered” for “4 mg/kg azacitidine were administered”, “administration of decitabine to the 50 mg/kg group was performed at the date of grouping (6 days after the tumor inoculation), and the administration thereof to the 1 mg/kg group was performed” for “administration of azacitidine was performed”
# as §3, §4, §5, §6
# [5] = Compound A 25 mg/kg oral, day 6 after tumor inoculation
# [6] = Compound A 25 mg/kg oral, day 8 after tumor inoculation
# [7] = Compound A 25 mg/kg oral, day 10 after tumor inoculation
# [8] = Compound A 25 mg/kg oral, day 13 after tumor inoculation
# [9] = Compound A 25 mg/kg oral, day 15 after tumor inoculation
# [10] = Compound A 25 mg/kg oral, day 17 after tumor inoculation
# [11] = Compound A 50 mg/kg oral, day 6 after tumor inoculation
# [12] = Compound A 50 mg/kg oral, day 8 after tumor inoculation
# [13] = Compound A 50 mg/kg oral, day 10 after tumor inoculation
# [14] = Compound A 50 mg/kg oral, day 13 after tumor inoculation
# [15] = Compound A 50 mg/kg oral, day 15 after tumor inoculation
# [16] = Compound A 50 mg/kg oral, day 17 after tumor inoculation
# [17] = decitabine 1 mg/kg iv, day 6 after tumor inoculation
# [18] = decitabine 1 mg/kg iv, day 8 after tumor inoculation
# [19] = decitabine 1 mg/kg iv, day 10 after tumor inoculation
# [20] = decitabine 1 mg/kg iv, day 13 after tumor inoculation
# [21] = decitabine 1 mg/kg iv, day 15 after tumor inoculation
# [22] = decitabine 1 mg/kg iv, day 17 after tumor inoculation
# [23] = decitabine 50 mg/kg iv, day 6 after tumor inoculation
# [24] = decitabine 50 mg/kg iv, day 8 after tumor inoculation
# [25] = decitabine 50 mg/kg iv, day 10 after tumor inoculation
# [26] = decitabine 50 mg/kg iv, day 13 after tumor inoculation
# [27] = decitabine 50 mg/kg iv, day 15 after tumor inoculation
# [28] = decitabine 50 mg/kg iv, day 17 after tumor inoculation
# [29] = azacitidine 4 mg/kg iv, day 6 after tumor inoculation
# [30] = azacitidine 4 mg/kg iv, day 8 after tumor inoculation
# [31] = azacitidine 4 mg/kg iv, day 10 after tumor inoculation
# [32] = azacitidine 4 mg/kg iv, day 13 after tumor inoculation
# [33] = azacitidine 4 mg/kg iv, day 15 after tumor inoculation
# [34] = azacitidine 4 mg/kg iv, day 17 after tumor inoculation
compound,measurement,setting,value
"CC1(C)CCC2(CC1)N[C@@H](C(=O)N[C@@H]1CC[C@@H](C(N)=O)OC1)[C@H](c1ccnc(Cl)c1F)[C@]21C(=O)Nc2cc(Cl)ccc21.Cc1ccc(S(=O)(=O)O)cc1 [Compound A, (3′R,4′S,5′R)—N-[(3R,6S)-6-carbamoyltetrahydro-2H-pyran-3-yl]-6″-chloro-4′-(2-chloro-3-fluoropyridin-4-yl)-4,4-dimethyl-2″-oxo-1″,2″-dihydrodispiro[cyclohexane-1,2′-pyrrolidine-3′,3″-indole]-5′-carboxamide p-toluenesulfonate]",TGI (%),[1]; Compound A 25 mg/kg oral,34%
same,"Estimated tumor volume, average",[1]; [5],118 mm^3
same,"Estimated tumor volume, average",[1]; [6],269 mm^3
same,"Estimated tumor volume, average",[1]; [7],418 mm^3
same,"Estimated tumor volume, average",[1]; [8],834 mm^3
same,"Estimated tumor volume, average",[1]; [9],1346 mm^3
same,"Estimated tumor volume, average",[1]; [10],1697 mm^3
same,TGI (%),[1]; Compound A 50 mg/kg oral,72%
same,"Estimated tumor volume, average",[1]; [11],116 mm^3
same,"Estimated tumor volume, average",[1]; [12],180 mm^3
same,"Estimated tumor volume, average",[1]; [13],197 mm^3
same,"Estimated tumor volume, average",[1]; [14],364 mm^3
same,"Estimated tumor volume, average",[1]; [15],545 mm^3
same,"Estimated tumor volume, average",[1]; [16],721 mm^3
same,"Body weight change (%), average",[2]; [5],0.0%
same,"Body weight change (%), average",[2]; [6],2.5%
same,"Body weight change (%), average",[2]; [7],3.7%
same,"Body weight change (%), average",[2]; [8],9.0%
same,"Body weight change (%), average",[2]; [9],10.8%
same,"Body weight change (%), average",[2]; [10],13.8%
same,"Body weight change (%), average",[2]; [11],0.0%
same,"Body weight change (%), average",[2]; [12],1.7%
same,"Body weight change (%), average",[2]; [13],4.4%
same,"Body weight change (%), average",[2]; [14],8.7%
same,"Body weight change (%), average",[2]; [15],8.9%
same,"Body weight change (%), average",[2]; [16],10.7%
same,TGI (%),[3]; Compound A 25 mg/kg oral,22%
same,"Estimated tumor volume, average",[3]; [5],147 mm^3
same,"Estimated tumor volume, average",[3]; [6],257 mm^3
same,"Estimated tumor volume, average",[3]; [7],388 mm^3
same,"Estimated tumor volume, average",[3]; [8],876 mm^3
same,"Estimated tumor volume, average",[3]; [9],1213 mm^3
same,"Estimated tumor volume, average",[3]; [10],1825 mm^3
same,TGI (%),[3]; Compound A 50 mg/kg oral,76%
same,"Estimated tumor volume, average",[3]; [11],143 mm^3
same,"Estimated tumor volume, average",[3]; [12],227 mm^3
same,"Estimated tumor volume, average",[3]; [13],170 mm^3
same,"Estimated tumor volume, average",[3]; [14],310 mm^3
same,"Estimated tumor volume, average",[3]; [15],407 mm^3
same,"Estimated tumor volume, average",[3]; [16],554 mm^3
same,"Body weight change (%), average",[4]; [5],0.0%
same,"Body weight change (%), average",[4]; [6],2.3%
same,"Body weight change (%), average",[4]; [7],2.0%
same,"Body weight change (%), average",[4]; [8],8.0%
same,"Body weight change (%), average",[4]; [9],8.5%
same,"Body weight change (%), average",[4]; [10],10.3%
same,"Body weight change (%), average",[4]; [11],0.0%
same,"Body weight change (%), average",[4]; [12],1.7%
same,"Body weight change (%), average",[4]; [13],2.4%
same,"Body weight change (%), average",[4]; [14],7.4%
same,"Body weight change (%), average",[4]; [15],6.2%
same,"Body weight change (%), average",[4]; [16],7.2%
"Nc1ncn([C@H]2C[C@H](O)[C@@H](CO)O2)c(=O)n1 [Decitabine, 4-amino-1-(2-deoxy-β-D-erythro-pentofuranosyl)-1,3,5-triazin-2(1H)-one, reference compound]",TGI (%),[3]; decitabine 1 mg/kg iv,38%
same,"Estimated tumor volume, average",[3]; [17],144 mm^3
same,"Estimated tumor volume, average",[3]; [18],228 mm^3
same,"Estimated tumor volume, average",[3]; [19],327 mm^3
same,"Estimated tumor volume, average",[3]; [20],585 mm^3
same,"Estimated tumor volume, average",[3]; [21],901 mm^3
same,"Estimated tumor volume, average",[3]; [22],1441 mm^3
same,TGI (%),[3]; decitabine 50 mg/kg iv,14%
same,"Estimated tumor volume, average",[3]; [23],145 mm^3
same,"Estimated tumor volume, average",[3]; [24],206 mm^3
same,"Estimated tumor volume, average",[3]; [25],365 mm^3
same,"Estimated tumor volume, average",[3]; [26],732 mm^3
same,"Estimated tumor volume, average",[3]; [27],1175 mm^3
same,"Estimated tumor volume, average",[3]; [28],1997 mm^3
same,"Body weight change (%), average",[4]; [17],0.0%
same,"Body weight change (%), average",[4]; [18],2.6%
same,"Body weight change (%), average",[4]; [19],2.5%
same,"Body weight change (%), average",[4]; [20],7.8%
same,"Body weight change (%), average",[4]; [21],11.5%
same,"Body weight change (%), average",[4]; [22],14.3%
same,"Body weight change (%), average",[4]; [23],0.0%
same,"Body weight change (%), average",[4]; [24],3.7%
same,"Body weight change (%), average",[4]; [25],6.0%
same,"Body weight change (%), average",[4]; [26],9.6%
same,"Body weight change (%), average",[4]; [27],10.3%
same,"Body weight change (%), average",[4]; [28],14.6%
"Nc1ncn([C@@H]2O[C@H](CO)[C@@H](O)[C@H]2O)c(=O)n1 [Azacitidine, 4-amino-1-β-D-ribofuranosyl-1,3,5-triazin-2(1H)-one, reference compound]",TGI (%),[1]; azacitidine 4 mg/kg iv,28%
same,"Estimated tumor volume, average",[1]; [29],115 mm^3
same,"Estimated tumor volume, average",[1]; [30],226 mm^3
same,"Estimated tumor volume, average",[1]; [31],334 mm^3
same,"Estimated tumor volume, average",[1]; [32],637 mm^3
same,"Estimated tumor volume, average",[1]; [33],1359 mm^3
same,"Estimated tumor volume, average",[1]; [34],1855 mm^3
same,"Body weight change (%), average",[2]; [29],0.0%
same,"Body weight change (%), average",[2]; [30],−0.2%
same,"Body weight change (%), average",[2]; [31],−0.4%
same,"Body weight change (%), average",[2]; [32],5.4%
same,"Body weight change (%), average",[2]; [33],8.8%
same,"Body weight change (%), average",[2]; [34],12.1%
